Test results: patent US20090029992A1, “SUBSTITUTED PYRAZOLE COMPOUNDS” (priority 2007, published 2009)

How the values were obtained:
[1] = target: T1, N-terminal His-tagged human Src (Homo sapiens, UniProt P12931); assay: Src kinase inhibition assay (33P-ATP filter assay); type: biochemical
T1 construct: His (N); purchased Upstate USA Inc, 706 Forest Street, Charlottesville, Va

HCT116 cells = assay: Whole cell cytotoxicity assay, Sulforhodamine B; type: cell-based; conditions: Homo sapiens, HCT-116, HCT116, 96 hours incubation, SRB; for IC50: read-out: IC50 values in this assay (HCT116 cell growth); for GI50: read-out: GI50 HCT116 cell growth
In short: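 HCT116 cells (500/well) in DMEM/10% FBS/2 mM glutamine were preincubated 24 h, then exposed to compound for 96 h at 37 °C, 5% CO2, in duplicate. Cells were fixed with TCA and stained with sulforhodamine B (A570). GI50, TGI and LC50 were derived relative to a time-zero plate and an untreated control.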

[2] = group with IC50 greater than 100 nM

T1 sequence (P12931 whole entry): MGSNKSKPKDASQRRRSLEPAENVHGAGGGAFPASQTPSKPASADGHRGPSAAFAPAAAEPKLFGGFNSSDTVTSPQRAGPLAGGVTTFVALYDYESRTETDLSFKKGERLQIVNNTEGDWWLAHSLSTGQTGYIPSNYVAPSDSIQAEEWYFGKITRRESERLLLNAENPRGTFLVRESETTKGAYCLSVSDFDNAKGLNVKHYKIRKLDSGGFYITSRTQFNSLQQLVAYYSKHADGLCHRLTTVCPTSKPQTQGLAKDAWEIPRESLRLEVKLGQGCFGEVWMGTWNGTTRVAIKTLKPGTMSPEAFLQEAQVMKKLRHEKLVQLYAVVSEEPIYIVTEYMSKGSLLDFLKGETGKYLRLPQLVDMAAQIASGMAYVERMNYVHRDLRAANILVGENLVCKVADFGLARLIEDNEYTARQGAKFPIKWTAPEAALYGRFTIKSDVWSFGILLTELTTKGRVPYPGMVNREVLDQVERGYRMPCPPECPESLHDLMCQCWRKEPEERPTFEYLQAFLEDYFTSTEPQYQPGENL

Row | Compound | IC50 ([1]; 40 minutes at room temperature) [µM] | IC50 [1, 2] [µM] | IC50 (HCT116 cells) [µM] | GI50 (HCT116 cells) [µM]
1 | Cc1cc(Nc2cc(NC3CCOCC3)nc(-c3ccc4c(c3)OCO4)n2)n[nH]1 [Example 132, 2-(benzo[d][1,3]dioxol-5-yl)-N^4-(5-methyl-1H-pyrazol-3-yl)-N^6-(tetrahydro-2H-pyran-4-yl)pyrimidine-4,6-diamine] | ≤ 0.1 | – | 1 to 10 | –
2 | Cc1cc(Nc2cc(N(C)CCN(C)C)nc(-c3cccc4ccoc34)n2)n[nH]1 [Example 205, 2-(benzofuran-7-yl)-N^4-(2-(dimethylamino)ethyl)-N^4-methyl-N^6-(5-methyl-1H-pyrazol-3-yl)pyrimidine-4,6-diamine] | – | ≤ 1 | 1 to 10 | –
3 | COCCN(C)c1cc(Nc2cc(C)[nH]n2)nc(-c2ccccc2)n1 [Example 171, N^4-(2-methoxyethyl)-N^4-methyl-N^6-(5-methyl-1H-pyrazol-3-yl)-2-phenyl pyrimidine-4,6-diamine] | – | ≤ 1 | 1 to 10 | –
4 | Cc1cc(Nc2cc(NC3CCOCC3)nc(-c3cc(F)ccc3F)n2)n[nH]1 [Example 185, 2-(2,5-difluorophenyl)-N^4-(5-methyl-1H-pyrazol-3-yl)-N^6-(tetrahydro-2H-pyran-4-yl)pyrimidine-4,6-diamine] | – | ≤ 1 | 1 to 10 | –
5 | COc1cccc(-c2nc(Nc3cc(C)[nH]n3)cc(NC3CCOCC3)n2)c1 [Compound 29, 2-(3-methoxyphenyl)-N^4-(5-methyl-1H-pyrazol-3-yl)-N^6-(tetrahydro-2H-pyran-4-yl)pyrimidine-4,6-diamine] | ≤ 0.1 | – | 1 to 10 | –
6 | Cc1cccc(-c2nc(Nc3cc(C)[nH]n3)cc(N(C)CCN(C)C)n2)c1 [Compound 52, N^4-(2-(dimethylamino)ethyl)-N^4-methyl-N^6-(5-methyl-1H-pyrazol-3-yl)-2-m-tolylpyrimidine-4,6-diamine] | – | ≤ 1 | – | ≤ 1
7 | Cc1cc(Nc2cc(N(C)CCN(C)C)nc(-c3ccccc3)n2)n[nH]1 [Compound 9, N^4-(2-(dimethylamino)ethyl)-N^4-methyl-N^6-(5-methyl-1H-pyrazol-3-yl)-2-phenylpyrimidine-4,6-diamine] | – | ≤ 1 | – | ≤ 1
8 | Cc1cc(Nc2cc(NCCN3CCOCC3)nc(-c3ccccc3)n2)n[nH]1 [Compound 11, N^4-(5-methyl-1H-pyrazol-3-yl)-N^6-(2-morpholinoethyl)-2-phenylpyrimidine-4,6-diamine] | – | ≤ 1 | – | ≤ 1
9 | COCCNc1cc(Nc2cc(C)[nH]n2)nc(-c2ccccc2)n1 [Compound 10, N^4-(2-methoxyethyl)-N^6-(5-methyl-1H-pyrazol-3-yl)-2-phenylpyrimidine-4,6-diamine] | – | – | 1 to 10 | –
10 | Cc1cc(Nc2cc(N3CCN(C)CC3)nc(-c3cccc(F)c3F)n2)n[nH]1 [Example 200] | ≤ 0.1 | – | – | ≤ 1
11 | COc1ccc(-c2nc(Nc3cc(C)[nH]n3)cc(N(C)CCN(C)C)n2)cc1 [Compound 54, N^4-(2-(dimethylamino)ethyl)-2-(4-methoxyphenyl)-N^4-methyl-N^6-(5-methyl-1H-pyrazol-3-yl)pyrimidine-4,6-diamine] | ≤ 0.1 | – | – | ≤ 1
12 | Cc1cc(Nc2cc(NC3CCOCC3)nc(-c3cccc4ccoc34)n2)n[nH]1 [Example 204, 2-(benzofuran-7-yl)-N^4-(5-methyl-1H-pyrazol-3-yl)-N^6-(tetrahydro-2H-pyran-4-yl)pyrimidine-4,6-diamine] | – | ≤ 1 | 1 to 10 | –
13 | Cc1cc(Nc2cc(N(C)CCN(C)C)nc(-c3cc4ccccc4n3C)n2)n[nH]1 [Compound 4, N^4-(2-(dimethylamino)ethyl)-N^4-methyl-2-(1-methyl-1H-indol-2-yl)-N^6-(5-methyl-1H-pyrazol-3-yl)pyrimidine-4,6-diamine] | ≤ 0.1 | – | – | ≤ 1
14 | CC(=O)N1CCN(c2cc(Nc3cc(C)[nH]n3)nc(-c3cc4ccccc4n3C)n2)CC1 [Compound 6, 1-(4-(6-(5-methyl-1H-pyrazol-3-ylamino)-2-(1-methyl-1H-indol-2-yl)pyrimidin-4-yl)-piperazin-1-yl)ethanone] | ≤ 0.1 | – | – | ≤ 1
15 | Cc1cc(Nc2cc(NC3CCOCC3)nc(-c3cccc(-c4ccccc4)c3)n2)n[nH]1 [Example 159, 2-(biphenyl-3-yl)-N^4-(5-methyl-1H-pyrazol-3-yl)-N^6-(tetrahydro-2H-pyran-4-yl)pyrimidine-4,6-diamine] | – | ≤ 1 | 1 to 10 | –
16 | COCCN(C)c1cc(Nc2cc(C)[nH]n2)nc(-c2cccc(N(C)C)c2)n1 [Compound 119, 2-(3-(dimethylamino)phenyl)-N^4-(2-methoxyethyl)-N^4-methyl-N^6-(5-methyl-1H-pyrazol-3-yl)pyrimidine-4,6-diamine] | ≤ 0.1 | – | 1 to 10 | –

The next lines start with results.

Row | IC50 ([1]; 40 minutes at room temperature) [µM] | IC50 [1, 2] [µM] | Compound | IC50 (HCT116 cells) [µM] | GI50 (HCT116 cells) [µM]
17 | – | ≤ 1 | Cc1cc(Nc2cc(N3CCN(C)CC3)nc(-c3cccc(OCc4ccccc4)c3)n2)n[nH]1 [Example 188, 2-(3-(benzyloxy)phenyl)-N-(5-methyl-1H-pyrazol-3-yl)-6-(4-methylpiperazin-1-yl)pyrimidin-4-amine] | 1 to 10 | –
18 | ≤ 0.1 | – | Cc1cc(Nc2cc(N3CCN(C)CC3)nc(-c3ccc(Cl)cc3)n2)n[nH]1 [Compound 35, 2-(4-chlorophenyl)-N-(5-methyl-1H-pyrazol-3-yl)-6-(4-methylpiperazin-1-yl)pyrimidin-4-amine] | 1 to 10 | –
19 | ≤ 0.1 | – | Cc1cc(Nc2cc(N3CCN(C)CC3)nc(-c3cc4ccccc4n3C)n2)n[nH]1 [Compound 2, 2-(1-methyl-1H-indol-2-yl)-N-(5-methyl-1H-pyrazol-3-yl)-6-(4-methylpiperazin-1-yl)pyrimidin-4-amine] | – | ≤ 1
20 | – | ≤ 1 | Cc1cc(Nc2cc(N3CCN(C)CC3)nc(-c3ccco3)n2)n[nH]1 [Compound 14, 2-(furan-2-yl)-N-(5-methyl-1H-pyrazol-3-yl)-6-(4-methylpiperazin-1-yl)-pyrimidin-4-amine] | 1 to 10 | –
21 | – | ≤ 1 | Cc1cc(Nc2cc(N3CCN(C)CC3)nc(-c3cccc(C(F)(F)F)c3)n2)n[nH]1 [Compound 101, N-(5-methyl-1H-pyrazol-3-yl)-6-(4-methylpiperazin-1-yl)-2-(3-(trifluoromethyl)phenyl)pyrimidin-4-amine] | 1 to 10 | –
22 | ≤ 0.1 | – | Cc1cc(Nc2cc(N3CCN(C)CC3)nc(-c3ccc(C(C)(C)C)cc3)n2)n[nH]1 [Compound 82, 2-(4-tert-butylphenyl)-N-(5-methyl-1H-pyrazol-3-yl)-6-(4-methylpiperazin-1-yl)pyrimidin-4-amine] | 1 to 10 | –
23 | ≤ 0.1 | – | Cc1cc(Nc2cc(N3CCN(C)CC3)nc(-c3ccc([N+](=O)[O-])cc3)n2)n[nH]1 [Example 164, N-(5-methyl-1H-pyrazol-3-yl)-6-(4-methylpiperazin-1-yl)-2-(4-nitrophenyl)pyrimidin-4-amine] | 1 to 10 | –
24 | ≤ 0.1 | – | Cc1cc(Nc2cc(N3CCN(C)CC3)nc(-c3ccc(C#N)cc3)n2)n[nH]1 [Example 160, 4-(4-(5-methyl-1H-pyrazol-3-ylamino)-6-(4-methylpiperazin-1-yl)pyrimidin-2-yl)benzonitrile] | – | ≤ 1
25 | ≤ 0.1 | – | Cc1cc(Nc2cc(N3CCN(C)CC3)nc(-c3cc4ccccc4o3)n2)n[nH]1 [Compound 1, 2-(benzofuran-2-yl)-N-(5-methyl-1H-pyrazol-3-yl)-6-(4-methylpiperazin-1-yl)pyrimidin-4-amine] | – | ≤ 1
26 | ≤ 0.1 | – | Cc1cc(Nc2cc(N3CCN(C)CC3)nc(-c3cc(F)ccc3C)n2)n[nH]1 [Example 196, 2-(5-fluoro-2-methylphenyl)-N-(5-methyl-1H-pyrazol-3-yl)-6-(4-methylpiperazin-1-yl)pyrimidin-4-amine] | – | ≤ 1
27 | ≤ 0.1 | – | Cc1cc(Nc2cc(N3CCN(C)CC3)nc(-c3ccccc3C)n2)n[nH]1 [Compound 40, N-(5-methyl-1H-pyrazol-3-yl)-6-(4-methylpiperazin-1-yl)-2-o-tolylpyrimidin-4-amine] | 1 to 10 | –
28 | – | ≤ 1 | Cc1ccc(C)c(-c2nc(Nc3cc(C)[nH]n3)cc(N3CCN(C)CC3)n2)c1 [Example 201, 2-(2,5-dimethylphenyl)-N-(5-methyl-1H-pyrazol-3-yl)-6-(4-methylpiperazin-1-yl)pyrimidin-4-amine] | 1 to 10 | –
29 | ≤ 0.1 | – | Cc1ccc(-c2nc(Nc3cc(C)[nH]n3)cc(N3CCN(C)CC3)n2)cc1 [Compound 38, N-(5-methyl-1H-pyrazol-3-yl)-6-(4-methylpiperazin-1-yl)-2-p-tolylpyrimidin-4-amine] | – | ≤ 1
30 | ≤ 0.1 | – | Cc1cc(Nc2cc(N3CCN(C)CC3)nc(-c3cccc4ccoc34)n2)n[nH]1 [Example 203, 2-(benzofuran-7-yl)-N-(5-methyl-1H-pyrazol-3-yl)-6-(4-methylpiperazin-1-yl)pyrimidin-4-amine] | 1 to 10 | –
31 | – | ≤ 1 | Cc1cc(Nc2cc(NC3CCOCC3)nc(-c3ccc(Cl)cc3)n2)n[nH]1 [Compound 22, 2-(4-chlorophenyl)-N^4-(5-methyl-1H-pyrazol-3-yl)-N^6-(tetrahydro-2H-pyran-4-yl)pyrimidine-4,6-diamine] | 1 to 10 | –
32 | – | ≤ 1 | CCc1ccccc1-c1nc(Nc2cc(C)[nH]n2)cc(N2CCN(C)CC2)n1 [Example 175, 2-(2-ethylphenyl)-N-(5-methyl-1H-pyrazol-3-yl)-6-(4-methylpiperazin-1-yl)pyrimidin-4-amine] | 1 to 10 | –
33 | ≤ 0.1 | – | Cc1cc(Nc2cc(N3CCN(C)CC3)nc(-c3cccnc3)n2)n[nH]1 [Compound 89, N-(5-methyl-1H-pyrazol-3-yl)-6-(4-methylpiperazin-1-yl)-2-(pyridin-3-yl)pyrimidin-4-amine] | 1 to 10 | –
